Measurements reported in patent US20240108598A1, “Danegaptide for Use in the Treatment or Prevention of a Kidney Disease” (CIANA THERAPEUTICS APS, priority 2021, published 2024).

Tests used:
Cx43 hemichannels [1] = molecular target: T1, Cx43 hemichannels (Homo sapiens, UniProt P17302); test: Carboxyfluorescein dye uptake assay in HK2 cells; format: cell-based; conditions: for carboxyfluorescein dye uptake, of control: 48 h
T1 construct: host or cells: HK2 human kidney proximal tubule epithelial cell line
T1 sequence (P17302 whole entry): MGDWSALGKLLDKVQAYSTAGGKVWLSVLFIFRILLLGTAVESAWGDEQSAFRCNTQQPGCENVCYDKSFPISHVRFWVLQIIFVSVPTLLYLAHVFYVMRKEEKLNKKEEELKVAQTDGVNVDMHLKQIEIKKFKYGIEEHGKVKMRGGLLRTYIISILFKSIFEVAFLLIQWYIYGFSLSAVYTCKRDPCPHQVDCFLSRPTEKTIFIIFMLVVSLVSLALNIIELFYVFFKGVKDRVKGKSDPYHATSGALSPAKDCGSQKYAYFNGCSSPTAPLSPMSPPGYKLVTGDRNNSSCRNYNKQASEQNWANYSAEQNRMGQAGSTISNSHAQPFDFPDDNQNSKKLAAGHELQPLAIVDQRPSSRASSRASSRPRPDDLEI
Protocol: (§1) In panel A, HK2 cells were cultured in low glucose (5 mM) with/without TGFβ1 (10 ng/ml)±danegaptide (50, 100 and 1000 nM) for 48 h and cell viability assessed. Results are presented as mean±SEM, n=3. […] Addition of danegaptide (50 or 100 nM) reduced dye uptake, returning fluorescence intensity to control levels. Intensity is expressed as percentage compared to low glucose control and is representative of 3 separate experiments. Data is presented as mean±SEM, n=3 with key significances indicated (**P<0.01, ***P<0.001); one-way ANOVA and Tukey's post-test).
HK2 and HPTEC cells were seeded onto fluorodishes (22 mm diameter) and cultured in low glucose DMEM/F12 (5 mmol/1) for 48 h. Following an overnight serum-starvation, cells were incubated with TGFβ1 (10 ng/ml)±danegaptide (100 nM) for 48 h. For subsequent steps, a balanced salt solution (BSS, pH7.0) was used, comprising of NaCl (137 mM), KCl (5.4 mM), MgSO4 (0.8 mM), Na2HPO4 (0.3 mM), KH2PO4 (0.4 mM), NaHCO3 (4.2 mM), HEPES (10 mM) and glucose (5 mM). To induce dye uptake, cells were exposed to Ca^2+-free BSS (zero CaCl2+EGTA (1 mM)) plus carboxyfluorescein (200 μM) for 10 min, followed by a 10 min period in Ca^2+-containing BSS (1.3 mM) plus carboxyfluorescein (200 μM). Dishes were subsequently washed with Ca^2+-containing BSS (12 mls). Images were acquired with a Cool Snap HQ CCD camera (Roper Scientific) and Metamorph software (Universal Imaging Corp., Marlow, Bucks, UK). ImageJ was used to quantify dye uptake, where a region of interest (ROI) was drawn around each cell (approx. 10-15 cells/dish) and mean pixel intensity measured. A background fluorescence value was subtracted from each ROI.

primary hPTECs = test: Inflammation antibody array, cell lysates (Table 1); format: cell-based, human; conditions: hPTEC lysate; TGF-β1 10 ng/mL + DG 100 nM, 48 h
Excerpt: An inflammation antibody array was used to assess regulation of 31 candidate inflammatory proteins in cell lysates from hPTEC cells treated with TGFβ1±danegaptide. Results are representative of 3 separate experiments and presented as mean±SEM, n=3 with key significances indicated (*P<0.05, **P<0.01, ***P<0.001; one-way ANOVA and Tukey's post-test).
A proteome profiler array (Human Cytokine Array Kit from R&D Systems, Oxfordshire, UK) was used, to determine if danegaptide negates TGFβ1-induced changes in expression and secretion of key pro-inflammatory mediators. Primary hPTECs were cultured as described above and treated with TGFβ1 (10 ng/mL)±danegaptide (100 nM) for 48 h.

HK2 cells = test: MTT assay (cell viability); format: cell-based, human; conditions: 48 h
Protocol: HK2 cells were cultured in low glucose (5 mM) for 48 h, prior to being serum-starved overnight and subsequently treated with TGFβ1 (10 ng/mL)±danegaptide (50 nM-1 μM) for 48 h (FIG. 1A, n=3).
The 3-(4,5-Dimethylthiazol-2-yl)-2,5-diphenyltetrazolium bromide (MTT) assay was performed as known in the art to assess the cytotoxic effects of danegaptide on cell proliferation. HK2 cells were seeded in 96-well plates and cultured in low glucose DMEM/F12 (5 mM) for 48 h, prior to overnight serum-starvation, then subsequently stimulated for 48 h with TGFβ1 (10 ng/ml)±danegaptide (50-1000 nM). Colourmetric measurement of formazan production corresponds to the number of viable cells.

Cx43 hemichannels [2] = molecular target: T1, Cx43 hemichannels; test: Carboxyfluorescein dye uptake assay in primary hPTECs; format: cell-based; conditions: TGFβ1 10 ng/mL + danegaptide 100 nM, 48 h
Protocol: as §1
HK2 and HPTEC cells were seeded onto fluorodishes (22 mm diameter) and cultured in low glucose DMEM/F12 (5 mmol/1) for 48 h. Following an overnight serum-starvation, cells were incubated with TGFβ1 (10 ng/ml)±danegaptide (100 nM) for 48 h. For subsequent steps, a balanced salt solution (BSS, pH7.0) was used, comprising of NaCl (137 mM), KCl (5.4 mM), MgSO4 (0.8 mM), Na2HPO4 (0.3 mM), KH2PO4 (0.4 mM), NaHCO3 (4.2 mM), HEPES (10 mM) and glucose (5 mM). […] ImageJ was used to quantify dye uptake, where a region of interest (ROI) was drawn around each cell (approx. 10-15 cells/dish) and mean pixel intensity measured. A background fluorescence value was subtracted from each ROI.

[3] = TGFβ1 10 ng/mL + danegaptide 50 nM
[4] = TGFβ1 10 ng/mL + danegaptide 100 nM

NCC(=O)N1C[C@H](NC(=O)c2ccccc2)C[C@H]1C(=O)O [danegaptide, (2S,4R)-1-(2-aminoacetyl)-4-benzamidopyrrolidine2-carboxylic acid]
carboxyfluorescein dye uptake, of control (Cx43 hemichannels [1]; [3]): 165.5±17.9%
carboxyfluorescein dye uptake, of control (Cx43 hemichannels [1]; [4]): 147.6±18.1%
carboxyfluorescein dye uptake (Cx43 hemichannels [1]; danegaptide alone): did not alter dye uptake
concentration of optimal inhibition of carboxyfluorescein dye uptake (Cx43 hemichannels [1]; dose range 10 to 1000 nM tested): 50 to 100 nM
Angiogenin in lysate (% compared to control) (primary hPTECs): 100 ± 20.3%
Cystatin C in lysate (% compared to control) (primary hPTECs): 123 ± 14.3%
DPPIV in lysate (% compared to control) (primary hPTECs): 187 ± 25.2%
ENA 78 in lysate (% compared to control) (primary hPTECs): 97 ± 18.2%
Endoglin in lysate (% compared to control) (primary hPTECs): 72.3 ± 8.9^ %
FGF7 in lysate (% compared to control) (primary hPTECs): 106 ± 15.2%
Flt 3 Ligand in lysate (% compared to control) (primary hPTECs): 208 ± 31.4%
G-CSF in lysate (% compared to control) (primary hPTECs): 126 ± 4.7%
GM-CSF in lysate (% compared to control) (primary hPTECs): 136 ± 11.6%
HGF in lysate (% compared to control) (primary hPTECs): 104.0 ± 9.0%
ICAM 1 in lysate (% compared to control) (primary hPTECs): 80 ± 28.7%
IFNg in lysate (% compared to control) (primary hPTECs): 112 ± 12.7%
IGFBP2 in lysate (% compared to control) (primary hPTECs): 334 ± 66.1%
IGFBP3 in lysate (% compared to control) (primary hPTECs): 97 ± 28.5%
IL1A in lysate (% compared to control) (primary hPTECs): 80 ± 18.8%
IL3 in lysate (% compared to control) (primary hPTECs): 129 ± 15.7%
IL8 in lysate (% compared to control) (primary hPTECs): 122 ± 5.2%
IL12 p70 in lysate (% compared to control) (primary hPTECs): 97 ± 4.6%
IL13 in lysate (% compared to control) (primary hPTECs): 150 ± 46.0%
Kallikrein 3 in lysate (% compared to control) (primary hPTECs): 67 ± 14.3%
LIF in lysate (% compared to control) (primary hPTECs): 225 ± 82^ %
MCP-1 in lysate (% compared to control) (primary hPTECs): 97.6 ± 13.9%
MMP9 in lysate (% compared to control) (primary hPTECs): 95 ± 10.6%
PDGF-AA/BB in lysate (% compared to control) (primary hPTECs): 95.2 ± 14.6%
RAGE in lysate (% compared to control) (primary hPTECs): 105 ± 9.2%
RANTES in lysate (% compared to control) (primary hPTECs): 104 ± 15.2%
Serpin E1 in lysate (% compared to control) (primary hPTECs): 148 ± 28.5%
TFF3 in lysate (% compared to control) (primary hPTECs): 132 ± 3.9%
TNF-α in lysate (% compared to control) (primary hPTECs): 144 ± 18.5%
Thrombospondin-1 in lysate (% compared to control) (primary hPTECs): 100 ± 19.8%
VEGF in lysate (% compared to control) (primary hPTECs): 101 ± 16.4%
cell viability (MTT) as compared to control (HK2 cells; [3]): 104.1±2.2%
cell viability (MTT) as compared to control (HK2 cells; [4]): 93.4±1.6%
cell viability (MTT) as compared to control (HK2 cells; TGFβ1 10 ng/mL + danegaptide 1 μM): 89.3±3.7%
cell viability (MTT) as compared to control (HK2 cells; danegaptide alone 50 nM): 95.2±7%
cell viability (MTT) as compared to control (HK2 cells; danegaptide alone 100 nM): 103±5.7%
cell viability (MTT) as compared to control (HK2 cells; danegaptide alone 1 μM): 96.6±5.3%
carboxyfluorescein dye uptake, of control (Cx43 hemichannels [2]): 145±19.7%
